Data reported in the METLIN SMRT retention time set (Domingo-Almenara et al. 2019).

Assay: gradient 5% acetonitrile 3 min, to 50% in 2 min, to 85% in 15 min, held 3 min, 100 µL/min
Conditions: column: Zorbax Extend-C18 2.1 x 50 mm; eluents: water / acetonitrile, 0.1% formic acid
In short: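 Over 3 months, pure standards in mixtures of ~100 molecules were run by HPLC coupled to a quadrupole time-of-flight mass spectrometer in positive and negative ionization mode. The column was a Zorbax Extend-C18 (2.1 × 50 mm, 1.8 μm) at 100 μL/min, eluted with water and acetonitrile each holding 0.1% formic acid, with 40 μL dead and 900 μL dwell volumes. Retention time was determined from adduct peaks chosen by software and checked manually.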

RP-LC retention time [s] | Compound
852 | Cc1nn(CC(=O)NC2CCCC2)c(=O)c2cc(-c3ccccc3)nn12
874 | CCOc1ccc(NC(=O)N2CCC3(CC2)NC(=O)c2ccc(Cl)cc2N3CC)cc1
686 | Cc1cnc(C2CCC2)n1CC1CCN(S(=O)(=O)c2ccccc2)CC1
582 | COc1ccc(-c2nnc(N3CCC(C(=O)N4CCN(C)CC4)CC3)o2)cc1
796 | Fc1ccccc1-c1noc(N2CCOCC2)n1
1120 | COc1cc(C(=O)Nc2nc(-c3ccc(Cl)cc3)cs2)cc(OC)c1OC
686 | CCc1cccc(C)c1Nc1c(-c2ccc(O)c(OC)c2)nc2ncccn12
576 | Cc1cc(C(=O)N2CC(N(C(=O)NC(C)C)C3CCOCC3)C2)nn1C
560 | Cc1nccn1-c1ccc(N2CCN(C(=O)c3cc4ccccc4o3)CC2)nn1
842 | Cc1cccc(-c2noc(Cc3nnc(-c4cc(C)cc(C)c4)o3)n2)c1
628 | O=C(N[C@@H]1CN(c2ncccn2)C[C@H]1CO)c1ccc(Cl)cc1
803 | CC1CC(=O)Nc2cc(S(=O)(=O)N3CCN(c4ncccn4)CC3)ccc2S1 (stereo unspecified)
714 | COc1ccc(C)cc1NC(=O)Nc1c(-c2ccc(F)cc2)nc2ccccn12
1030 | O=C(Nc1ccc(-c2nc(-c3ccccc3)no2)cc1)C1CC(=O)N(c2ccccc2)C1 (stereo unspecified)
703 | CCN1c2ccccc2C(=O)NC12CCN(C(=O)Nc1cccc(OC)c1)CC2
884 | C[C@H]1CN(S(=O)(=O)c2ccccc2F)C[C@@H]1c1nc(-c2ccncc2)no1
573 | CCN1CCCC1CN(CC(=O)N1CCNCC1)S(=O)(=O)c1cc(Cl)ccc1OC (stereo unspecified)
1070 | O=C(NC1CCCCCCC1)c1nnc(-c2ccc(S(=O)(=O)N3CCCC3)cc2)o1
737 | O=C(COc1ccccc1)N1CCC(c2noc(-c3ccncc3)n2)C1 (stereo unspecified)
681 | CNC(=O)C1CCCN(c2nc3ncn(CC(=O)Nc4cc(F)cc(F)c4)c(=O)c3s2)C1 (stereo unspecified)
716 | COc1ccc(Cl)cc1NS(=O)(=O)c1cc(-c2[nH]ncc2C(=O)N(C)C)oc1C
846 | COc1ccc(NC(=O)C2c3cc(OC)c(OC)cc3C(=O)N(C)C2c2cccs2)c(OC)c1 (stereo unspecified)

RP-LC retention time [s] | Compound
1320 | CCOc1cccc(-c2noc(-c3nnn4c3COC(c3ccc(Cl)cc3)C4)n2)c1 (stereo unspecified)
1310 | CCc1nc(-c2ccc(-c3noc(COc4ccc(F)cc4)n3)cc2)cs1
761 | COc1ccccc1-c1noc(C2CCCN2C(=O)NCc2ccco2)n1 (stereo unspecified)
758 | COc1ccc(-n2nc(C(=O)Nc3ccc4c(c3)OCCO4)c(=O)cc2OC)cc1
641 | O=C(O)[C@@H]1CN(Cc2ccccc2)C[C@@H]1C(=O)N1CCc2ccccc21
807 | CCOC(=O)Cc1ccc(NC(=O)N2CCCC2c2cc(C)on2)cc1 (stereo unspecified)
760 | CC(C)(C)C(=O)N1CCN(c2ncccc2-c2nnc(C3CC3)o2)CC1
755 | CCN1CCCn2cc(S(=O)(=O)Nc3ccc(F)c(C)c3)cc2C1=O
653 | COc1ccc(-n2c(N(C)C)nc3cc(C(=O)NC4CC4)sc32)cc1
756 | COc1ccccc1NC(=O)N1CCC2(CC1)NC(=O)c1cc(F)ccc1N2C
964 | COc1ccccc1NC(=O)c1cc(=O)n2c(nc3ccccc32)s1
1230 | Cc1cccc(-c2noc(Cn3c(=O)n(Cc4cccc(Cl)c4)c(=O)c4sccc43)n2)c1
619 | COc1ccc(OC)c(S(=O)(=O)N2CCC(Cc3nncn3C)C2)c1 (stereo unspecified)
712 | COc1ccc(Cl)cc1S(=O)(=O)N1CCc2nn(C)c(=O)n2CC1
771 | CNC(=O)c1nc(C(=O)NCCc2ccc(Cl)cc2)cs1
702 | COc1ccc(CNC(=O)N2CCC(N3CCN(Cc4ccccc4)C(=O)C3=O)CC2)cc1
561 | COCCN1CCC(CNC(=O)Cc2cccc3ccccc23)CC1
1230 | COc1ccc(Cl)cc1NC(=O)c1csc(-c2cn(C)c3ncccc23)n1
987 | CSc1ccccc1C(=O)N(Cc1ccsc1)CC(F)(F)F
719 | CCCN(CCC)CCCNC(=O)C1CCCN(c2ncc(-c3ccccc3)cn2)C1 (stereo unspecified)
851 | CCCCOc1ccc(NC(=O)Nc2ccc(N3CCCS3(=O)=O)cc2)cc1
643 | NS(=O)(=O)c1ccc(CCNCc2ccc(-c3ccccc3F)o2)cc1

RP-LC retention time [s] | Compound
801 | Cc1nnc(-c2ccc3ccn(CC(=O)Nc4ccc(F)cc4F)c3c2)o1
864 | CC1CCN(c2nc(C(=O)N(C)c3ccccc3)nc3c2cnn3C)CC1
987 | CN(Cc1ccccc1)C(=O)CN1C(=O)C2CCCCN2c2ccc(S(=O)(=O)N3CCCC3)cc21 (stereo unspecified)
672 | O=C1C(N2CCN(S(=O)(=O)c3ccccc3Cl)CC2)CCN1CCc1ccccc1 (stereo unspecified)
1030 | CCc1nc(-c2csc(S(=O)(=O)N3CCCC(C(=O)Nc4ccccc4)C3)c2)no1 (stereo unspecified)
938 | O=c1n(Cc2ccc(F)cc2)nc2c(S(=O)(=O)N3CCc4ccccc4C3)cccn12
774 | CCOC(=O)C1CCN(C(=O)c2sc(Nc3cccc(C)n3)nc2C)CC1
644 | O=C(CSc1nccn1Cc1ccc(Cl)cc1)NCCc1ccccc1
1060 | O=C(NCc1ccccc1)C1CCN(C(=O)c2cc3ccsc3n2Cc2ccc(Cl)cc2)CC1
640 | CCN(Cc1ccccc1)C(=O)c1cn2c(n1)COCC2
708 | CCNC(=O)c1ccc(-n2cccc2)nc1
629 | COc1ccc(-n2nc(SCC(=O)Nc3ccc(Cl)cc3)ccc2=O)cc1
708 | Cc1cc(S(=O)(=O)N2CCN(c3cnn4c(C)nnc4c3)CC2)ccc1F
621 | Cc1noc(C)c1CN1CCC(NC(=O)c2cc3ccccc3[nH]2)CC1
867 | COc1ccc(OC)c(NC(=O)N2CCCn3nc(-c4cccs4)cc3C2)c1
768 | Cc1nn(CC(=O)NC(C)(C)C)c(=O)c2c(C)n(-c3ccccc3)nc12
1120 | CCCCc1nnc2sc(COc3ccc(C)c(C)c3)nn12
641 | COc1ccc(CNS(=O)(=O)c2cc3n(c2)CCCNC3=O)cc1
960 | CC(=O)N1CCc2cc(S(=O)(=O)C(C)CC(=O)N3CCN(Cc4ccccc4)CC3)ccc21 (stereo unspecified)
768 | Cc1noc(C2CN(C(=O)Nc3ccc(C)c(C)c3)CC23CCOCC3)n1 (stereo unspecified)
744 | CC1CCN(S(=O)(=O)c2ccc3nn(C)c(=O)n3c2)CC1
954 | Cc1ccc(F)c(NC(=O)c2cnc(-c3ccc(F)cc3)nc2-c2ccncc2)c1
